Experimental data: patent publication US12435080B2, “sGC stimulators” (Tisento Therapeutics Inc., priority 2016, dated 2025)
Where “and” joins values, the source holds several entries; their conditions need not be identical. Identical values can stand only once. Like-named read-outs stand apart in the source and are kept apart here.

Molecular target: T1, sGC enzyme (Homo sapiens, UniProt Q02108+Q02153)
T1 construct: incorporated into these cells detect cGMP formed by the compounds stimulating the sGC enzyme; host or cells: HEK293 cells stably expressing GloSensor 40F cGMP biosensor
T1 sequence (Q02153 1-619): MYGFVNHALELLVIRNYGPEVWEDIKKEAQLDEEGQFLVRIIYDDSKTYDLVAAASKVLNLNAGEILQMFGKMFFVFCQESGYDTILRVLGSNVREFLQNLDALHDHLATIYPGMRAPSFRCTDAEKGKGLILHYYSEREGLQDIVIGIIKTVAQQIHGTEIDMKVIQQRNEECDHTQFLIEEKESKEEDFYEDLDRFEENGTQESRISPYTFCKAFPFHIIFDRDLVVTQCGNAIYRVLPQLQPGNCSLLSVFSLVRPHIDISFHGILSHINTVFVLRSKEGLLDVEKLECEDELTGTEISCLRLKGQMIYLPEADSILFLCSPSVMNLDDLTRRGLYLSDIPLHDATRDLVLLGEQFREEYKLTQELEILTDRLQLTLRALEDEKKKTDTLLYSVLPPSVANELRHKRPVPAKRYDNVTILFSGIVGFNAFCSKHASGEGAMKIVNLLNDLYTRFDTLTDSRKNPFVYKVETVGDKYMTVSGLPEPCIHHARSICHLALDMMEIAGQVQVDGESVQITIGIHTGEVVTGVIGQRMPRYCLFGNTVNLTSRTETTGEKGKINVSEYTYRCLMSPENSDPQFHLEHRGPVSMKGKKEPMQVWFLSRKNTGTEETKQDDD
T1 sequence (Q02108 1-690): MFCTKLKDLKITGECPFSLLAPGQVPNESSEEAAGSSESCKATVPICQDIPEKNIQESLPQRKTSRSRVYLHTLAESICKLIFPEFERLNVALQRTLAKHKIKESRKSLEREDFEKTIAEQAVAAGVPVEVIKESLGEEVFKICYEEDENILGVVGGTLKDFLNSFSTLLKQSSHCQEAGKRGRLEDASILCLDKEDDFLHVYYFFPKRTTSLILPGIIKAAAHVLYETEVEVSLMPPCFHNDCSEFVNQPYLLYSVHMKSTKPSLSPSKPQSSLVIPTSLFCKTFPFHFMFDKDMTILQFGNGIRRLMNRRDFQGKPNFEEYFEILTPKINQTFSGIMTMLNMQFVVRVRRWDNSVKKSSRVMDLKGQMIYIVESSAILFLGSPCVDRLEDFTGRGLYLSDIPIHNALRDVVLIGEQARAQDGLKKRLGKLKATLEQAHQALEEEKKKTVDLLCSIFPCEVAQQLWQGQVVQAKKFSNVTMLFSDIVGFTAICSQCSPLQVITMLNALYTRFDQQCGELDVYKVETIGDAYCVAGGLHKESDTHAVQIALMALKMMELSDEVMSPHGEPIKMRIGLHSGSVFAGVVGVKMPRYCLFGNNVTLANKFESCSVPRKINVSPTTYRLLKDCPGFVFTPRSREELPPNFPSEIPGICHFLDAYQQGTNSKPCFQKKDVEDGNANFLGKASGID
Assay: cGMP GloSensor cell-based assay, 384-well format
Details: HEK293 cells expressing GloSensor 40F cGMP, 10 μM DETA-NONOate, normalized to 30 μM Compound Y
Excerpt: Human embryonic kidney cells (HEK293) cells expressing GloSensor™ 40F cGMP (Part No: CS182801, Promega) were used to evaluate the activity of test compounds. The luminescent biosensors (engineered luciferase) that were incorporated into these cells detect cGMP formed by the compounds stimulating the sGC enzyme and emit luminescence.
cGMP GloSensor cells were maintained in Dulbecco's Modification of Eagle's Medium (DMEM) supplemented with fetal bovine serum (FBS, 10% final) and hygromycine (200 ug/ml). […] Cells were incubated overnight at 37° C. in a humidified chamber with 5% CO2. The next day, medium was removed and cells were replaced with 40 ul/well of GloSensor™, 2 mM (Promega Cat No E1291). Cells were treated for 90 minutes at 25° C. to allow the substrate to equilibrate in the cells. […] For endpoint SAR screening, data were collected after 55 min incubation at room temperature.
Data were fit using a 4-parameter fit (log(agonist) vs. response—variable slope) using GraphPad Prism Software v.5. n=2 for all compounds. […] Compounds failing to elicit a minimum response of 50% are reported as >30 μM or ND.

[1] = compounds in Table IA, read-out: Glo-sensor AbsEC50
[2] = compounds in Table IB, read-out: Glo-sensor Abs EC50

| Compound | EC50 [1] | EC50 [2] |
| --- | --- | --- |
| Fc1ccccc1Cn1nc(-c2nc(C3CNC3)n[nH]2)c2cccnc21 [Compound I-73, 3-(3-(azetidin-3-yl)-1H-1,2,4-triazol-5-yl)-1-(2-fluorobenzyl)-1H-pyrazolo[3,4-b]pyridine] | > 1000 nM and < 100 nM | – |
| Fc1ccccc1Cn1nc(-c2nc(C3(c4ccccc4)CC3)n[nH]2)c2cccnc21 [Compound I-81, 1-(2-Fluorobenzyl)-3-(3-(1-phenylcyclopropyl)-1H-1,2,4-triazol-5-yl)-1H-pyrazolo[3,4-b]pyridine] | > 1000 nM | – |
| Cc1n[nH]c(-c2nn(Cc3ccccc3F)c3ncccc23)n1 [Compound I-60, 1-(2-Fluorobenzyl)-3-(3-methyl-1H-1,2,4-triazol-5-yl)-1H-pyrazolo[3,4-b]pyridine] | < 100 nM | – |
| Cc1ncc(Cn2nc(-c3nc(C)n[nH]3)c3cccnc32)cn1 [Compound I-113, 3-(3-Methyl-1H-1,2,4-triazol-5-yl)-1-((2-methylpyrimidin-5yl)methyl)-1H-pyrazolo[3,4-b]pyridine] | < 100 nM | – |
| Fc1ccccc1Cn1nc(-c2nc(NCCC(F)(F)F)n[nH]2)c2cccnc21 [Compound I-89] | < 100 nM | – |
| Fc1ccccc1Cn1nc(-c2nc(C(F)(F)F)n[nH]2)c2cnccc21 [Compound I-43, 1-(2-Fluorobenzyl)-3-(3-(trifluoromethyl)-1H-1,2,4-triazol-5-yl)-1H-pyrazolo[4,3-c]pyridine] | > 1000 nM | – |
| Cc1ncc(Cn2nc(-c3nc(C(F)(F)F)n[nH]3)c3ccc(Cl)cc32)cn1 [Compound I-22, 6-Chloro-1-((2-methylpyrimidin-5-yl)methyl)-3-(3-(trifluoromethyl)-1H-1,2,4-triazol-5-yl)-1H-indazole] | < 100 nM | – |
| FC(F)(F)c1n[nH]c(-c2nc(CCC(F)(F)C(F)(F)F)n3ncccc23)n1 [Compound I-18, 7-(3,3,4,4,4-pentafluorobutyl)-5-(3-(trifluoromethyl)-1H-1,2,4-triazol-5-yl)imidazo[1,5-b]pyridazine] | – | 100 to 1000 nM |
| Fc1cc(F)c2c(Cc3cncnc3)nc(-c3nc(C(F)(F)F)n[nH]3)n2c1 [Compound I-28, 6,8-Difluoro-1-(pyrimidin-5-ylmethyl)-3-(3-(trifluoromethyl)-1H-1,2,4-triazol-5-yl)imidazo[1,5-a]pyridine] | – | < 100 nM |
| FC(F)(F)c1n[nH]c(-c2nc(Cc3cncnc3)c3ncccn23)n1 [Compound I-17] | – | < 100 nM |
| Cc1ccc2c(-c3nc(C(F)(F)F)n[nH]3)nn(Cc3ccccc3F)c2n1 [Compound I-50, 1-(2-Fluorobenzyl)-6-methyl-3-(3-(trifluoromethyl)-1H-1,2,4-triazol-5-yl)-1H-pyrazolo[3,4-b]pyridine] | < 100 nM | – |
| FC(F)(F)c1n[nH]c(-c2nn(Cc3cncnc3)c3cc(Cl)ccc23)n1 [Compound I-16, 6-Chloro-1-(pyrimidin-5-ylmethyl)-3-(3-(trifluoromethyl)-1H-1,2,4-triazol-5-yl)-1H-indazole] | < 100 nM | – |
| Fc1ccccc1Cn1nc(-c2nc(N3CCOCC3)n[nH]2)c2cccnc21 [Compound I-57] | 100 to 1000 nM | – |
| NCc1n[nH]c(-c2nn(Cc3ccccc3F)c3ncccc23)n1 [Compound I-115, (5-(1-(2-fluorobenzyl)-1H-pyrazolo[3,4-b]pyridin-3-yl)-1H-1,2,4-triazol-3-yl)methanamine] | 100 to 1000 nM | – |
| CCC(=O)c1n[nH]c(-c2nn(Cc3ccccc3F)c3ncccc23)n1 [Compound I-66] | > 1000 nM | – |
| Fc1cccc(Cc2nn(-c3nc(C(F)(F)F)n[nH]3)c3cccnc23)c1 [Compound I-120, 3-(3-Fluorobenzyl)-1-(3-(trifluoromethyl)-1H-1,2,4-triazol-5-yl)-1H-pyrazolo[4,3-b]pyridine] | 100 to 1000 nM | – |
| Cc1ncc(Cc2nc(-c3nc(C(F)(F)F)n[nH]3)n3cc(Cl)ccc23)cn1 [Compound I-34, 6-Chloro-1-((2-methylpyrimidin-5-yl)methyl)-3-(3-(trifluoromethyl)-1H-1,2,4-triazol-5-yl)imidazo[1,5-a]pyridine] | – | > 1000 nM |
| Fc1ccccc1Cn1nc(-c2nc(OCC(F)(F)F)n[nH]2)c2cccnc21 [Compound I-83, 1-(2-Fluorobenzyl)-3-(3-(2,2,2-trifluoroethoxy)-1H-1,2,4-triazol-5-yl)-1H-pyrazolo[3,4-b]pyridine] | > 1000 nM | – |
| CC(F)(F)c1n[nH]c(-c2nn(Cc3ccccc3F)c3ncccc23)n1 [Compound I-36, 3-(3-(1,1-difluoroethyl)-1H-1,2,4-triazol-5-yl)-1-(2-fluorobenzyl)-1H-pyrazolo[3,4-b]pyridine] | < 100 nM | – |
| COCCC(O)c1n[nH]c(-c2nn(Cc3ccccc3F)c3ncccc23)n1 (stereo not drawn) [Compound I-116, 1-(5-(1-(2-fluorobenzyl)-1H-pyrazolo[3,4-b]pyridin-3-yl)-1H-1,2,4-triazol-3-yl)-3-methoxypropan-1-ol] | 100 to 1000 nM | – |
| C=C(C)c1n[nH]c(-c2nn(Cc3ccccc3F)c3ncccc23)n1 [Compound I-55] | 100 to 1000 nM | – |
| FC(F)(F)c1n[nH]c(-c2nn(CC(F)(F)C(F)(F)F)c3ncccc23)n1 [Compound I-19, 1-(2,2,3,3,3-Pentafluoropropyl)-3-(3-(trifluoromethyl)-1H-1,2,4-triazol-5-yl)-1H-pyrazolo[3,4-b]pyridine] | > 1000 nM | – |
| CC(C)(O)c1n[nH]c(-c2nn(Cc3ccccc3F)c3ncccc23)n1 [Compound I-94, 2-(5-(1-(2-fluorobenzyl)-1H-pyrazolo[3,4-b]pyridin-3-yl)-1H-1,2,4-triazol-3-yl)propan-2-ol] | 100 to 1000 nM | – |
| Fc1ccccc1Cn1nc(-c2nc(C(F)(F)F)n[nH]2)c2ccncc21 [Compound I-32] | 100 to 1000 nM | – |
| C=COCc1n[nH]c(-c2nn(Cc3ccccc3F)c3ncccc23)n1 [Compound I-117] | 100 to 1000 nM | – |
| O=C1CCC(=O)N1Cc1n[nH]c(-c2nn(Cc3ccccc3F)c3ncccc23)n1 [Compound I-125, 1-((5-(1-(2-fluorobenzyl)-1H-pyrazolo[3,4-b]pyridin-3-yl)-1H-1,2,4-triazol-3-yl)methyl)pyrrolidine-2,5-dione] | 100 to 1000 nM | – |
| Fc1ccccc1Cc1nc(-c2nc(C(F)(F)F)n[nH]2)n2ncccc12 [Compound I-24, 5-(2-Fluorobenzyl)-7-(3-(trifluoromethyl)-1H-1,2,4-triazol-5-yl)imidazo[1,5-b]pyridazine] | – | > 1000 nM |
| COc1n[nH]c(-c2nn(Cc3ccccc3F)c3ncccc23)n1 [Compound I-82, 1-(2-fluorobenzyl)-3-(3-methoxy-1H-1,2,4-triazol-5-yl)-1H-pyrazolo[3,4-b]pyridine] | 100 to 1000 nM | – |
| Fc1ccccc1Cn1nc(-c2nc(C3CN(CC(F)(F)F)C3)n[nH]2)c2cccnc21 [Compound I-95, 1-(2-Fluorobenzyl)-3-(3-(1-(2,2,2-trifluoroethyl)azetidin-3-yl)-1H-1,2,4-triazol-5-yl)-1H-pyrazolo[3,4-b]pyridine] | 100 to 1000 nM | – |
| Fc1ccccc1Cn1nc(-c2nc(C3CC(F)(F)C3)n[nH]2)c2cccnc21 [Compound I-77, 3-(3-(3,3-Difluorocyclobutyl)-1H-1,2,4-triazol-5-yl)-1-(2-fluorobenzyl)-1H-pyrazolo[3,4-b]pyridine] | 100 to 1000 nM | – |
